Reference: patent US20220062240A1, “METHODS OF TREATING CANCER USING A CLK INHIBITOR” (BioSplice Therapeutics, Inc., priority 2018, published 2022)
Where two headings read alike, the source gives them in different places.

Key:
[1] = test system: colorectal cancer (6 cell lines); test: CellTiter-Glo Viability Assay, colorectal cancer; type: cell-based; details: Homo sapiens, inhibition of cancer cell proliferation
[2] = test system: prostate cancer (5 cell lines); test: CellTiter-Glo Viability Assay, prostate cancer; type: cell-based; details: Homo sapiens
CLK3 = CLK3 (Homo sapiens, UniProt P49761); test: CLK3 kinase activity assay (Z-lyte, Ser/Thr 18 peptide)
[3] = test system: lung cancer (4 cell lines); test: CellTiter-Glo Viability Assay, lung cancer; type: cell-based; details: Homo sapiens, inhibition of cancer cell proliferation
[4] = test system: ovarian cancer (4 cell lines); test: CellTiter-Glo Viability Assay, ovarian cancer; type: cell-based; details: Homo sapiens, inhibition of cancer cell proliferation
CLK2 = target: T1, CLK2 (Homo sapiens, UniProt P49760); test: CLK2 kinase activity assay (Z-lyte, Ser/Thr 6 peptide); type: biochemical; details: recombinant CLK2 kinase, ATP 60 μM; read-out: EC50
T1 construct: purchased Thermo Fisher (Life Technologies), Z'-LYTE Kinase Assay Kits
Procedure: All reactions were performed in duplicate.

[5] = test system: liver cancer (3 cell lines); test: CellTiter-Glo Viability Assay, liver cancer; type: cell-based; details: Homo sapiens, inhibition of cancer cell proliferation
[6] = test system: pancreatic cancer (8 cell lines); test: CellTiter-Glo Viability Assay, pancreatic cancer; type: cell-based; details: Homo sapiens, inhibition of cancer cell proliferation
[7] = test system: haematopoietic & lymphoid tumors (13 cell lines); test: CellTiter-Glo Viability Assay, haematopoietic & lymphoid tumors; type: cell-based; details: Homo sapiens, inhibition of cancer cell proliferation
all 50 cell lines = test: CellTiter-Glo Viability Assay, average across all cell lines; type: cell-based; details: Homo sapiens; across all 50 cell lines; read-out: average EC50 for inhibition of cancer cell proliferation
How it was run: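 Cancer cell lines of several tumour types plated at 300-3,000 cells/well and exposed to compound in duplicate for four days at 37° C, 5% CO2, with DMSO-treated controls. Viability read by CellTiter-Glo luminescence (ATP content); EC50 derived from dose-response curves.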

MDA-MB-231-Luc = test: CellTiter-Glo Viability Assay, breast cancer; type: cell-based; details: Homo sapiens, 96 h; MDA-MB-231-Luc, breast cancer, four days; read-out: EC50
ZR-75-1 = test: CellTiter-Glo Viability Assay, breast cancer; type: cell-based; details: Homo sapiens, 96 h; ZR-75-1, breast cancer, four days; read-out: EC50
T47D = test: CellTiter-Glo Viability Assay, breast cancer; type: cell-based; details: Homo sapiens, 96 h, breast cancer, four days, read-out: EC50
HCC1599 = test: CellTiter-Glo Viability Assay, breast cancer; type: cell-based; details: Homo sapiens, 96 h; HCC1599, breast cancer, four days; read-out: EC50
BT-549 = test: CellTiter-Glo Viability Assay, breast cancer; type: cell-based; details: Homo sapiens, 96 h; BT-549, breast cancer, four days; read-out: EC50
MCF7 = test: CellTiter-Glo Viability Assay, breast cancer; type: cell-based; details: Homo sapiens, 96 h; MCF7, breast cancer, four days; read-out: EC50
CAMA1 = test: CellTiter-Glo Viability Assay, breast cancer; type: cell-based; details: Homo sapiens, CAMA-1, 96 h; CAMA1, breast cancer, four days; read-out: EC50
DU4475 = test: CellTiter-Glo Viability Assay, breast cancer; type: cell-based; details: Homo sapiens, DU-4475, 96 h; DU4475, breast cancer, four days; read-out: EC50

Chain of CLK3 (P49761 whole entry): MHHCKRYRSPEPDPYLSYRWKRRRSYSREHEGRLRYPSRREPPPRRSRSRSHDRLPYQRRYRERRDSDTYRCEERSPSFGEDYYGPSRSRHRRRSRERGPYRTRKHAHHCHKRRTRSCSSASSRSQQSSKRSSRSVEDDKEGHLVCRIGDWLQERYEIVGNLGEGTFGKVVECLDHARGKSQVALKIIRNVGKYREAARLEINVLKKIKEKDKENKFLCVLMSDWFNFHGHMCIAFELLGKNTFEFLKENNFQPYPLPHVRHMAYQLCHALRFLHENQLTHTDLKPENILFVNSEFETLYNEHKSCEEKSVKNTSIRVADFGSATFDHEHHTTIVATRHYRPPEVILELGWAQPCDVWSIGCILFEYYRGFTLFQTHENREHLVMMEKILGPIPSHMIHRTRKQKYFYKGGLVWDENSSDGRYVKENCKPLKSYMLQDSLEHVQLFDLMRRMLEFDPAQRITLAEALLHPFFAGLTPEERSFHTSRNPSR
T1 sequence (P49760 whole entry): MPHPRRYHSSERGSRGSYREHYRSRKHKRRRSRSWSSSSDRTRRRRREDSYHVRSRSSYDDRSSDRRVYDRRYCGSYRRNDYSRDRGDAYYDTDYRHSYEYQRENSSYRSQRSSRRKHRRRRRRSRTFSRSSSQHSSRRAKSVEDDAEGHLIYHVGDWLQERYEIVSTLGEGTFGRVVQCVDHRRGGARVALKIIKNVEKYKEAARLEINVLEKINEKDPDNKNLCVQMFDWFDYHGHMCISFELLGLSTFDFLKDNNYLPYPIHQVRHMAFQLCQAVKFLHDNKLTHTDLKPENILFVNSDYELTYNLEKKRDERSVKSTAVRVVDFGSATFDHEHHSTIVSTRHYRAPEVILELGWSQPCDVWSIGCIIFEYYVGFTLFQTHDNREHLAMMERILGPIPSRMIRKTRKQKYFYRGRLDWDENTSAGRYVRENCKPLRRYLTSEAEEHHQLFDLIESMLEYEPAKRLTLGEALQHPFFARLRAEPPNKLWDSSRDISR

## Cn1ncc(-c2ccc3cnc(NC(=O)C4CC5(C4)CN(CCF)C5)cc3c2)c1CN1CCCCC1 [Compound 77]
[1]; HCT-116, HCT116 cell line, read-out: Colorectal cancer, EC50 (μM) HCT116
  EC50: 0.294 µM
[1]; HT-29, HT29 cell line, read-out: Colorectal cancer, EC50 (μM) HT29
  EC50: 0.537 µM
[1]; SW-620, SW620 cell line, read-out: Colorectal cancer, EC50 (μM) SW620
  EC50: 0.187 µM
[1]; DLD-1 cell line, read-out: Colorectal cancer, EC50 (μM) DLD-1
  EC50: 0.229 µM
[1]; SW48 cell line, read-out: Colorectal cancer, EC50 (μM) SW48
  EC50: 0.12 µM
[1]; SW480 cell line, read-out: Colorectal cancer, EC50 (μM) SW480
  EC50: 0.383 µM
[2]; DU-145, read-out: Prostate cancer EC50 Du-145
  EC50: 734 nM
[2]; PC-3, PC3 cell line, inhibition of cancer cell proliferation, read-out: Prostate cancer EC50 PC3
  EC50: 901 nM
[2]; 22Rv1 cell line, inhibition of cancer cell proliferation, read-out: Prostate cancer EC50 22Rv1
  EC50: 814 nM
[2]; LNCap clone FGC cell line, inhibition of cancer cell proliferation, read-out: Prostate cancer EC50 LNCap clone FGC
  EC50: 432 nM
[2]; VCaP (Sigma) cell line, inhibition of cancer cell proliferation, read-out: Prostate cancer EC50 VCaP (Sigma)
  EC50: 1220 nM
CLK3
  EC50: 50 nM
[3]; A-427, A427 cell line, read-out: Lung cancer, EC50 (μM) A427
  EC50: 0.973 µM
[3]; HCC78, HCC-78 cell line, read-out: Lung cancer, EC50 (μM) HCC-78
  EC50: 1.28 µM
[3]; NCI-H460 cell line, read-out: Lung cancer, EC50 (μM) NCI-H460
  EC50: 0.649 µM
[3]; NCI-H522 cell line, read-out: Lung cancer, EC50 (μM) NCI-H522
  EC50: 0.312 µM
[4]; PA-1, PA1 cell line, read-out: Ovarian cancer, EC50 (μM) PA1
  EC50: 0.71 µM
[4]; TOV112D, TOV-112D cell line, read-out: Ovarian cancer, EC50 (μM) TOV-112D
  EC50: 0.457 µM
[4]; OV-90 cell line, read-out: Ovarian cancer, EC50 (μM) OV-90
  EC50: 0.806 µM
[4]; OVCAR-3 cell line, read-out: Ovarian cancer, EC50 (μM) OVCAR-3
  EC50: 0.204 µM
CLK2
  EC50: 5.8 nM
[5]; SNU-398, SNU398 cell line, read-out: Liver cancer, EC50 SNU398
  EC50: 339 nM
[5]; HEPG2 cell line, read-out: Liver cancer, EC50 HEPG2
  EC50: 766 nM
[5]; PLC/PRF/5 cell line, read-out: Liver cancer, EC50 PLC/PRF/5
  EC50: 2190 nM
[6]; BXPC-3, BxPC3 cell line, read-out: Pancreatic cancer, EC50 BxPC3
  EC50: 422 nM
[6]; CAPAN-1, Capan1 cell line, read-out: Pancreatic cancer, EC50 Capan1
  EC50: 673 nM
[6]; Capan-2, Capan2 cell line, read-out: Pancreatic cancer, EC50 Capan2
  EC50: 495 nM
[6]; MIA PaCa-2 cell line, read-out: Pancreatic cancer, EC50 MIA PaCa-2
  EC50: 318 nM
[6]; PANC 05.04 cell line, read-out: Pancreatic cancer, EC50 PANC 05.04
  EC50: 635 nM
[6]; PANC-1 cell line, read-out: Pancreatic cancer, EC50 PANC-1
  EC50: 659 nM
[6]; UPAFII cell line, read-out: Pancreatic cancer, EC50 UPAFII
  EC50: 660 nM
[7]; DND41, DND-41 cell line, read-out: Haematopoietic & Lymphoid tumors, EC50 (μM) DND-41
  EC50: 0.854 µM
[7]; MV4-11, MV-4-11 cell line, read-out: Haematopoietic & Lymphoid tumors, EC50 (μM) MV-4-11
  EC50: 0.069 µM
[7]; Rec1, REC-1 cell line, read-out: Haematopoietic & Lymphoid tumors, EC50 (μM) REC-1
  EC50: 0.361 µM
[7]; SU-DHL-4, SUDHL4 cell line, read-out: Haematopoietic & Lymphoid tumors, EC50 (μM) SUDHL4
  EC50: 0.424 µM
[7]; HL-60 cell line, read-out: Haematopoietic & Lymphoid tumors, EC50 (μM) HL-60
  EC50: 1.78 µM
[7]; JM1 cell line, read-out: Haematopoietic & Lymphoid tumors, EC50 (μM) JM1
  EC50: 0.375 µM
[7]; JURKAT, Clone E6-1 cell line, read-out: Haematopoietic & Lymphoid tumors, EC50 (μM) JURKAT, Clone E6-1
  EC50: 0.699 µM
[7]; JeKo-1 cell line, read-out: Haematopoietic & Lymphoid tumors, EC50 (μM) JeKo-1
  EC50: 0.469 µM
[7]; KASUMI-1 cell line, read-out: Haematopoietic & Lymphoid tumors, EC50 (μM) KASUMI-1
  EC50: 0.197 µM
[7]; Loucy cell line, read-out: Haematopoietic & Lymphoid tumors, EC50 (μM) Loucy
  EC50: 0.368 µM
[7]; MOLT-4 cell line, read-out: Haematopoietic & Lymphoid tumors, EC50 (μM) MOLT-4
  EC50: 1.22 µM
[7]; TF-1 cell line, read-out: Haematopoietic & Lymphoid tumors, EC50 (μM) TF-1
  EC50: 0.944 µM
[7]; TOLEDO cell line, read-out: Haematopoietic & Lymphoid tumors, EC50 (μM) TOLEDO
  EC50: 0.584 µM
All 50 cell lines
  EC50: 684 nM
MDA-MB-231-Luc
  EC50: 890 nM
ZR-75-1
  EC50: 826 nM
T47D
  EC50: 1020 nM
HCC1599
  EC50: 606 nM
BT-549
  EC50: 549 nM
MCF7
  EC50: 1280 nM
CAMA1
  EC50: 1850 nM
DU4475
  EC50: 452 nM
